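Following 48 hours of exposure in 96-well plates, responses at five concentrations were used to interpolate endpoints linearly. TGI denotes the concentration required for complete inhibition of growth.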 Where a SMILES comes first, the peptide text is derived from it. The star is where a group is joined. Cbz = O=C(OCc1ccccc1)*; NHNH2 = NN*
What was measured:
Assay in all cases: inhibition of tumour cell growth, NCI panel, 48 h
[1] = system: NCI-H23 lung
[2] = system: A549 NSCLC
[3] = system: SN12C renal
[4] = system: M14 melanoma
[5] = system: K-562 leukemia
[6] = system: MOLT-4 leukemia
[7] = system: SNB-19 CNS
[8] = system: NCI-H522 lung
[9] = system: MDA-MB-435
[10] = system: HL-60(TB) leukemia

| SMILES | TGI [1] | TGI [2] | TGI [3] | TGI [4] | TGI [5] | TGI [6] | TGI [7] | TGI [8] | TGI [9] | TGI [10] |
| --- | --- | --- | --- | --- | --- | --- | --- | --- | --- | --- |
| CCOn1c(C2(CC3CCN(C(=O)c4ccccc4)CC3)OCCO2)cc2ccccc21 | 40.6 µM | 32.4 µM | 30.9 µM | 33.6 µM | 38.2 µM | 31.3 µM | 30.9 µM | 35 µM | 27.4 µM |  |
| CN(C)CCn1c(=O)c2ccc(NCCCN(C)CCCNc3ccc4c(=O)n(CCN(C)C)c(=O)n5c6ccc([N+](=O)[O-])cc6c(=O)c3c45)c3c(=O)c4cc([N+](=O)[O-])ccc4n(c1=O)c23 | 0.171 µM | 0.308 µM | 0.165 µM | 0.753 µM |  |  | 0.193 µM | 0.134 µM | 0.097 µM | 1.56 µM |
| Cn1c([O-])nc(-n2cc[n+](C)c2)cc1=O | > 100 µM | > 100 µM | > 100 µM | > 100 µM | > 100 µM | > 100 µM | > 100 µM |  | > 100 µM | > 100 µM |
| NC(N)=Nc1ncccc1[N+](=O)[O-] | > 100 µM | > 100 µM | > 100 µM |  | > 100 µM | > 100 µM | > 100 µM | > 100 µM |  | 44.4 µM |
| C=CCOCCCCC(C(C)=O)C(=O)OC (stereo not drawn) | > 100 µM | > 100 µM | > 100 µM | > 100 µM | > 100 µM | > 100 µM | > 100 µM | > 100 µM |  | > 100 µM |
| COC(=O)c1ccc(C=Nc2ccc(S(N)(=O)=O)cc2)cc1 |  | > 100 µM | > 100 µM | > 100 µM |  | > 100 µM | > 100 µM |  | > 100 µM | > 100 µM |
| Cn1c2ccccc2n2c(=O)c3cc([N+](=O)[O-])ccc3c(C#N)c12 | > 100 µM | > 100 µM |  | > 100 µM | > 100 µM | > 100 µM | > 100 µM | > 100 µM | > 100 µM | > 100 µM |
| COC(=O)CC(NC(=O)OCc1ccccc1)C(=O)NC(CC(=O)OC)C(=O)NC(CC(=O)OC)C(=O)NC(CC(=O)OC)C(=O)NC(CC(=O)OC)C(=O)NC(CC(=O)OC)C(=O)NN (stereo not drawn) (Cbz-D(OMe)D(OMe)D(OMe)D(OMe)D(OMe)D(OMe)-NHNH2; configuration not given here) |  |  | > 100 µM | > 100 µM | > 100 µM | > 100 µM | > 100 µM |  | > 100 µM | > 100 µM |
| CN(C)S(=O)(=O)Nc1nnc(S(N)(=O)=O)s1 | > 100 µM | > 100 µM |  | > 100 µM | > 100 µM | > 100 µM | > 100 µM | > 100 µM | > 100 µM | > 100 µM |
| O=c1[nH]nc(-c2ccccc2)c2[nH]c(-c3ccccc3)cc12 | > 100 µM | > 100 µM | > 100 µM | > 100 µM | > 100 µM | > 100 µM | > 100 µM |  | > 100 µM | > 100 µM |
| O=C(CSc1n[nH]c(=O)[nH]c1=O)NNC(=O)c1cccc2nc3ccccc3nc12 | > 100 µM | > 100 µM | > 100 µM | > 100 µM | > 100 µM | > 100 µM | > 100 µM |  | > 100 µM | > 100 µM |
